According to patent US4048320A, “Penicillins” (Beecham Group Limited, priority 1975, dated 1977):
≈ marks a conversion by molar mass, not a printed value. Like-named read-outs stand apart in the source and are kept apart here.

How the values were obtained:
Assay type in all cases: cell-based
E. coli = test: MIC by serial dilution in nutrient agar; settings: Escherichia coli
Klebsiella aerogenes = test: MIC by serial dilution in nutrient agar
Serratia marcescens = test: MIC by serial dilution in nutrient agar
Citrobacter freundii = test: MIC by serial dilution in nutrient agar
Enterobacter aerogenes = test: MIC by serial dilution in nutrient agar; settings: Klebsiella aerogenes
E. cloacae = test: MIC by serial dilution in nutrient agar; settings: Enterobacter cloacae
Proteus mirabilis = test: MIC by serial dilution in nutrient agar
P. morganii = test: MIC by serial dilution in nutrient agar
P. vulgaris = test: MIC by serial dilution in nutrient agar; settings: Proteus vulgaris
P. rettgeri = test: MIC by serial dilution in nutrient agar; settings: Providencia rettgeri
Streptococcus faecalis = test: MIC by serial dilution in nutrient agar
[1] = test system: a range of Gram-negative bacteria and Strep. Faecalis; test: Microbiological evaluation, comparison of MIC values of the two compounds (Table I); settings: from MIC values of Table I
[2] = E. coli strain JT1, read-out: MIC
[3] = E. coli strain JT39R+, read-out: MIC
[4] = E. coli strain JT56R+, read-out: MIC
[5] = E. coli strain JT68R+, read-out: MIC
[6] = E. coli strain JT103, read-out: MIC
[7] = E. coli strain JT147, read-out: MIC
[8] = E. coli strain JT454C+, read-out: MIC
[9] = E. coli strain JT460C+, read-out: MIC
[10] = Klebsiella aerogenes strain B195R+
[11] = Klebsiella aerogenes strain E70
[12] = Klebsiella aerogenes strain I229
[13] = Klebsiella aerogenes strain I281
[14] = Klebsiella aerogenes strain T312
[15] = Serratia marcescens strain US30
[16] = Serratia marcescens strain US39R+
[17] = Citrobacter freundii strain T745
[18] = Citrobacter freundii strain W18
[19] = Enterobacter aerogenes strain T730
[20] = Enterobacter aerogenes strain T755
[21] = Proteus mirabilis strain H-WF, read-out: MIC
[22] = Morganella morganii, P. morganii strain DU10, read-out: MIC
[23] = Enterococcus faecalis, Streptococcus faecalis strain Weaver, read-out: MIC
[24] = Streptococcus faecalis strain A
[25] = Streptococcus faecalis strain Page

Structure (SMILES) | MIC (E. coli; [2]) | MIC (E. coli; E. coli strain JT2OR+) | MIC (E. coli; [3]) | MIC (E. coli; [4]) | MIC (E. coli; [5]) | MIC (E. coli; [6]) | MIC (E. coli; [7]) | MIC (E. coli; [8]) | MIC (E. coli; [9]) | MIC (Klebsiella aerogenes; [10]) | MIC (Klebsiella aerogenes; [11]) | MIC (Klebsiella aerogenes; [12]) | MIC (Klebsiella aerogenes; [13]) | MIC (Klebsiella aerogenes; [14]) | MIC (Serratia marcescens; Serratia marcescens strain US1) | MIC (Serratia marcescens; [15]) | MIC (Serratia marcescens; [16]) | MIC (Citrobacter freundii; [17]) | MIC (Citrobacter freundii; [18]) | MIC (Enterobacter aerogenes; [19]) | also measured
COC1(NC(=O)C(C(=O)O)c2ccsc2)C(=O)N2C(C(=O)O)C(C)(C)SC21 [6-methoxy ticarcillin, 6-β-(D,L-2-Carboxy-2-thien-3'-ylacetamido)-6-α-methoxypenicillanic acid] | 2.5 µg/mL (≈ 6.03 µM) | 5 µg/mL (≈ 12.1 µM) | 5 µg/mL (≈ 12.1 µM) | 5 µg/mL (≈ 12.1 µM) | 5 µg/mL (≈ 12.1 µM) | 2.5 µg/mL (≈ 6.03 µM) | 5 µg/mL (≈ 12.1 µM) | 5 µg/mL (≈ 12.1 µM) | 5 µg/mL (≈ 12.1 µM) | 5 µg/mL (≈ 12.1 µM) | 2.5 µg/mL (≈ 6.03 µM) | 5 µg/mL (≈ 12.1 µM) | 5 µg/mL (≈ 12.1 µM) | 5 µg/mL (≈ 12.1 µM) | 2.5 µg/mL (≈ 6.03 µM) | 5 µg/mL (≈ 12.1 µM) | 2.5 µg/mL (≈ 6.03 µM) | 2.5 µg/mL (≈ 6.03 µM) | 2.5 µg/mL (≈ 6.03 µM) | 1.2 µg/mL (≈ 2.9 µM) | MIC (Enterobacter aerogenes; [20]): 2.5 µg/mL (≈ 6.03 µM); MIC (E. cloacae; E. cloacae strain T629): 2.5 µg/mL (≈ 6.03 µM); MIC (E. cloacae; E. cloacae strain T763): 1.2 µg/mL (≈ 2.9 µM); MIC (Proteus mirabilis; Proteus mirabilis strain BS66): 2.5 µg/mL (≈ 6.03 µM); MIC (Proteus mirabilis; Proteus mirabilis strain CT13): 2.5 µg/mL (≈ 6.03 µM); MIC (Proteus mirabilis; [21]): 2.5 µg/mL (≈ 6.03 µM); MIC (Proteus mirabilis; Proteus mirabilis strain T251): 2.5 µg/mL (≈ 6.03 µM); MIC (P. morganii; [22]): 2.5 µg/mL (≈ 6.03 µM); MIC (P. morganii; P. morganii strain DU718): 2.5 µg/mL (≈ 6.03 µM); MIC (P. vulgaris; P. vulgaris strain C): < 0.5 µg/mL; MIC (P. vulgaris; P. vulgaris strain I): 2.5 µg/mL (≈ 6.03 µM); MIC (P. vulgaris; P. vulgaris strain K): 5 µg/mL (≈ 12.1 µM); MIC (P. rettgeri; P. rettgeri strain B): 2.5 µg/mL (≈ 6.03 µM); MIC (P. rettgeri; P. rettgeri strain I): 5 µg/mL (≈ 12.1 µM); MIC (P. rettgeri; P. rettgeri strain R110): 2.5 µg/mL (≈ 6.03 µM); MIC (Streptococcus faecalis; [23]): > 500 µg/mL; MIC (Streptococcus faecalis; [24]): > 500 µg/mL; MIC (Streptococcus faecalis; [25]): > 500 µg/mL; activity relative to the corresponding phenyl compound (6-methoxy carbenicillin) [1]: consistently two-fold more active
COC1(NC(=O)C(C(=O)O)c2ccccc2)C(=O)N2C(C(=O)O)C(C)(C)SC21 (stereo not drawn) [6-methoxy carbenicillin, 6α-methoxy-6β-(2-carboxyphenylacetamido)penicillanic acid, reference compound] | 5 µg/mL (≈ 12.2 µM) | 5 µg/mL (≈ 12.2 µM) | 12.5 µg/mL (≈ 30.6 µM) | 12.5 µg/mL (≈ 30.6 µM) | 12.5 µg/mL (≈ 30.6 µM) | 5 µg/mL (≈ 12.2 µM) | 12.5 µg/mL (≈ 30.6 µM) | 5 µg/mL (≈ 12.2 µM) | 12.5 µg/mL (≈ 30.6 µM) | 25 µg/mL (≈ 61.2 µM) | 5 µg/mL (≈ 12.2 µM) | 12.5 µg/mL (≈ 30.6 µM) | 12.5 µg/mL (≈ 30.6 µM) | 12.5 µg/mL (≈ 30.6 µM) | 5 µg/mL (≈ 12.2 µM) | 12.5 µg/mL (≈ 30.6 µM) | 5 µg/mL (≈ 12.2 µM) | 5 µg/mL (≈ 12.2 µM) | 12.5 µg/mL (≈ 30.6 µM) | 5 µg/mL (≈ 12.2 µM) | MIC (Enterobacter aerogenes; [20]): 5 µg/mL (≈ 12.2 µM); MIC (E. cloacae; E. cloacae strain T629): 5 µg/mL (≈ 12.2 µM); MIC (E. cloacae; E. cloacae strain T763): 5 µg/mL (≈ 12.2 µM); MIC (Proteus mirabilis; Proteus mirabilis strain BS66): 5.0 µg/mL (≈ 12.2 µM); MIC (Proteus mirabilis; Proteus mirabilis strain CT13): 5.0 µg/mL (≈ 12.2 µM); MIC (Proteus mirabilis; [21]): 5 µg/mL (≈ 12.2 µM); MIC (Proteus mirabilis; Proteus mirabilis strain T251): 5.0 µg/mL (≈ 12.2 µM); MIC (P. morganii; [22]): 5 µg/mL (≈ 12.2 µM); MIC (P. morganii; P. morganii strain DU718): 5.0 µg/mL (≈ 12.2 µM); MIC (P. vulgaris; P. vulgaris strain C): < 0.5 µg/mL; MIC (P. vulgaris; P. vulgaris strain I): 5 µg/mL (≈ 12.2 µM); MIC (P. vulgaris; P. vulgaris strain K): 12.5 µg/mL (≈ 30.6 µM); MIC (P. rettgeri; P. rettgeri strain B): 5 µg/mL (≈ 12.2 µM); MIC (P. rettgeri; P. rettgeri strain I): 5 µg/mL (≈ 12.2 µM); MIC (P. rettgeri; P. rettgeri strain R110): 5 µg/mL (≈ 12.2 µM); MIC (Streptococcus faecalis; [23]): > 500 µg/mL; MIC (Streptococcus faecalis; [24]): > 500 µg/mL; MIC (Streptococcus faecalis; [25]): > 500 µg/mL
